Our source for the EC50 values is patent publication EP2435433B1, “(DIHYDRO)IMIDAZOISO[5,1-A]QUINOLINES AS FSH RECEPTOR AGONISTS FOR THE TREATMENT OF FERTILITY DISORDERS” (Merck Sharp & Dohme B.V., priority 2009, dated 2010).

Each structure is given as a SMILES string.

This experiment concerns the target T1, human FSH receptor (Homo sapiens, UniProt P23945).
T1 construct: expressed in transfected cells; host or cells: Chinese Hamster Ovary (CHO) cells, stably transfected, cotransfected with CRE/promotor-firefly luciferase reporter
T1 sequence (P23945 18-695): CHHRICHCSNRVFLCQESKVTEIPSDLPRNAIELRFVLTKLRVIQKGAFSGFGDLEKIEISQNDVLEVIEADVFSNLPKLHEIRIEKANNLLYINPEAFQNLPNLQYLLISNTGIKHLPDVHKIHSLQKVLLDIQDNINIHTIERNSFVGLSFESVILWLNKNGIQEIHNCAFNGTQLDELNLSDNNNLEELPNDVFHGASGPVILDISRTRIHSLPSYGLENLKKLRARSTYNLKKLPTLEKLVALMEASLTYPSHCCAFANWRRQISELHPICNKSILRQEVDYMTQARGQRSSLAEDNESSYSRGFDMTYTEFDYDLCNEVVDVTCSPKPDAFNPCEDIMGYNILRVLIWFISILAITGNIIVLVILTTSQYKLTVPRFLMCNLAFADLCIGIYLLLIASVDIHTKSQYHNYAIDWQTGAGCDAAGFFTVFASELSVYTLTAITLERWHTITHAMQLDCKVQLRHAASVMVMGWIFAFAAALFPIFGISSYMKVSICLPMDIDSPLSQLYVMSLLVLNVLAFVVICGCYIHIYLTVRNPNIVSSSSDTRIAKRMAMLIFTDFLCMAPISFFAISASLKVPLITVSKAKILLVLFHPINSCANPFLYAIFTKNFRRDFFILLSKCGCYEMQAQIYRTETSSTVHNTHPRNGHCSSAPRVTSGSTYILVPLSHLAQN
In words: Agonistic activity of compounds at the human FSH receptor expressed in CHO cells, CRE/luciferase reporter (hFSHRago (CHO luc)). In kind it is cell-based. As to conditions: CHO cells stably transfected with the human FSH receptor and CRE/firefly luciferase reporter; 4 hours of incubation; half-maximal stimulation relative to the compound's own maximal effect; read-out: hFSHRago (CHO luc) EC50. A digest of the protocol: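 CHO cells stably expressing human FSH receptor with CRE/firefly luciferase reporter, incubated 4 h at 37 °C with compounds (0.0316 nM–10.0 µM, duplicate, 1% DMSO final) in insulin/apo-transferrin-supplemented medium. Luminescence read after lysis; EC50 relative to compound's own maximum, efficacy as % of recombinant human FSH maximum.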
In the case of `COc1cc2c(cc1OC)-c1c(-c3ccccc3)nc(C(=O)N3CCCCCC3)n1CC2` [Example 49d, Azepan-1-yl-(8,9-dimethoxy-1-phenyl-5,6-dihydro-imidazo[5,1-a]isoquinolin-3-yl)-methanone], the EC50 was determined as 630 nM. For `COc1cc2c(cc1OC)-c1c(-c3ccc(F)cc3)nc(C(=O)N3CCCN(C(C)=O)CC3)n1CC2` [Example 50e, 1-{4-[1-(4-Fluoro-phenyl)-8,9-dimethoxy-5,6-dihydro-imidazo[5,1-a]isoquinoline-3-carbonyl]-[1,4]diazepan-1-yl}-ethanone], the EC50 amounted to 315 nM. The result for `COc1cc2c(cc1SC(C)C)-c1c(-c3cccs3)nc(C(=O)N(C)C(C)(C)C)n1CC2` [Example 52c, 9-Isopropylsulfanyl-8-methoxy-1-thiophen-2-yl-5,6-dihydro-imidazo[5,1-a]isoquinoline-3-carboxylic acid tert-butyl-methyl-amide] reads 16 nM.
